How the values were obtained:
[1] = system: BALB/cJ mice; experiment: Prepulse inhibition of startle; format: in vivo, mouse
Experimental: (§1) For chronic fluoxetine studies in BALB/cJ mice, 60 male BALB/cJ mice were tested in the OF for 30 min on days 19 or 20 of chronic fluoxetine treatment. Mice were then pretested and tested in the modified FST on days 21 and 22, respectively. Animals were then allowed to adapt to being singly housed, and were trained for NIH on days 25-27. Home cage and novel cage testing occurred on days 28 and 29, respectively. Mice were then assessed for PPI on days 34 or 35.
(§2) Studies of subchronic fluoxetine were conducted using separate groups of 60 male BALB/cJ mice to prevent fluoxetine treatment from exceeding one week. One group was tested in the OF after one day of subchronic fluoxetine treatment. Mice were then pretested after 6 and tested after 7 days of subchronic fluoxetine treatment in the modified FST. A second group of BALB/cJ mice began fluoxetine treatment after being singly housed. They were then tested in the NIH test after 4 (home) and 5 (novel) days of subchronic fluoxetine treatment. A third group was tested for PPI after one or two days of subchronic fluoxetine treatment.
Prepulse Inhibition: Startle experiments were performed in MED-Associates chambers. Nonrestrictive Plexiglas cylinders 5 cm in diameter rested on a Plexiglas platform with a transducer amplifier. The sound-dampening isolation chambers were ventilated, well-lit, and equipped with an acoustic stimulator. Data acquisition was performed using Med-Associates software.
Five different trial types were presented in the test session: a 40-msec broadband 120 dB burst (PULSE ALONE trial); three different PREPULSE+PULSE trials in which 20-msec long 3 dB (pp3), 6 dB (pp6), or 12 dB (pp12) stimuli above a 70 dB background preceded the 120 dB pulse by 100 msec (onset to onset), and a NO STIMULUS trial, in which only the background noise was presented. Trials were presented in a pseudo-random order. A variable interval of 10-20 seconds separated trials.
The test session consisted of 62 test trials. The session began with a 10 min acclimation period, followed by four consecutive blocks of test trials. Blocks one and four consisted of six consecutive PULSE ALONE trials, while blocks two and three contained six PULSE ALONE trials, five pp3+p120 trials, five pp6+p120 trials, five pp12+p120 trials, and four NO STIMULUS trials. Analyses were performed using average values for each trial type.
Prepulse Inhibition: PPI was calculated as the averaged startle magnitude caused by PULSE ALONE trials from blocks two and three, minus the averaged startle magnitude caused by the prepulse-pulse trials, all divided by the averaged PULSE ALONE values from blocks two and three. The resulting value was multiplied by 100 and presented as a percent PPI value. Four-factor ANOVAs with fluoxetine and RU24969 as between subjects factors and prepulse intensity and block as within subjects variables assessed percent PPI levels. Interactions were resolved using post-hoc ANOVAs with adjusted p-values, and/or Newman-Keuls post-hoc tests.

[2] = system: BALB/cJ mice; conditions: acute 10 mg/kg fluoxetine; cited from earlier work
[3] = system: BALB/cJ mice; experiment: Open field test, chronic vs. subchronic fluoxetine; format: in vivo, mouse
Experimental: as §1, §2
Open field test: Motor activity was quantified in four Plexiglas OF boxes 43 x 43 cm (MED Associates, Georgia, Vt.). Two sets of 16 pulse-modulated infrared photobeams were placed on opposite walls 2.5-cm apart to record x-y ambulatory movements. Activity chambers were computer interfaced for data sampling at 100-ms resolution. The computer defined grid lines that divided each OF into center and surround regions, with each of four lines being 11 cm from each wall. Dependent measures were the number of entries into the center, the distance traveled in the center, total time spent in the center, and distance traveled in the center divided by total distance traveled. Overall motor activity was quantified as the total distance traveled (cm).
Open field test: For Experiment 1, two-factor ANOVAs with fluoxetine as a between-subject factor and day as a within-subject factor were applied to five measures for each strain: time spent in the center, distance traveled in the center, center distance/total distance traveled, entries into the center, and total distance traveled. Main effects of fluoxetine or significant interactions of fluoxetine and day were resolved using post-hoc ANOVAs with adjusted p-values and/or Newman-Keuls post-hoc tests. Subchronic and chronic experiments in Balb/cJ mice were analyzed using one-way ANOVAs with fluoxetine as a between-subjects factor and Newman-Keuls post-hoc tests for the same variables. Because data deviated substantially from a normal distribution due to low activity levels of Balb/cJ mice, analyses were applied to log transformed data.
Remaining significant effects of fluoxetine indicate independence between measures of locomotor activity and center measures.

[4] = Serum fluoxetine levels by liquid chromatography with fluorescence detection; format: in vivo, mouse; conditions: Balb/cJ mice
Experimental: Fluoxetine was a generous gift from Lilly (Indianapolis, Ind.), and was delivered ad libitum in the drinking water. Fluoxetine was dissolved in tap water and changed weekly. For initial strain comparison studies, daily drinking was measured and the concentration of fluoxetine solutions were adjusted to deliver 0, 5, or 10 mg/kg/day of fluoxetine to each strain. For subchronic and chronic studies in BALB/cJ mice, 80-mg/L, 160 mg/L, and 240 mg/L fluoxetine was given, and drinking was recorded throughout the study. Fluoxetine plasma levels were determined by liquid chromatography with fluorescence detection (Suckow et al., 1992) for chronically treated Balb/cJ mice. 5-methoxy-3(1,2,3,6)tetrahydropyridin-4-yl-1H-indole (RU24969) was obtained from Tocris Cookson (Ellisville, Mo.), dissolved in saline, and delivered i.p. (5 ml/kg) with 26 gauge needles. Both drugs were protected from light.

[5] = chronic 18 mg/kg/day vs controls

CNCCC(Oc1ccc(C(F)(F)F)cc1)c1ccccc1 (centres unmarked) [fluoxetine]
PPI in RU24969-treated mice ([1]; chronic 10 mg/kg/day fluoxetine, 12 dB prepulse intensity): increased PPI relative to RU24969-treated mice receiving 0 and 18 mg/kg/day fluoxetine | Startle reactivity, interactions of RU24969 with fluoxetine ([1]; chronic fluoxetine): no interactions | RU24969-induced disruption of PPI ([1]; chronic fluoxetine 10, 18, 25 mg/kg/day, 10 mg/kg RU24969, 3, 6, 12 dB prepulse): RU24969 disrupted PPI in control mice, but not mice treated with any dose of fluoxetine | PPI, fluoxetine alone ([1]; chronic fluoxetine without RU24969): No effects | PPI, interactions of RU24969 with fluoxetine ([1]; subchronic fluoxetine (1-2 days)): No interactions | startle reactivity in the second and third blocks ([1]; subchronic fluoxetine study (1-2 days), 10 mg/kg RU24969): no effects | immobility [2]: reduces immobility acutely | log of center entries ([3]; chronic 10 mg/kg/day): lower values than groups receiving 18 mg/kg/day and 25 mg/kg/day | center entries, without logarithmic transformation [3, 5]: made more center entries | center/total distance, without logarithmic transformation [3, 5]: trend for higher center/total distance values | log of center distance [3, 5]: significantly higher values than controls | log of center distance/log total distance traveled [3, 5]: significantly higher values than controls | log of center entries [3, 5]: significantly higher values than controls | log of time in the center ([3]; chronic fluoxetine): no significant effect of drug | total locomotor activity (log transformed) ([3]; chronic fluoxetine 10, 18, 25 mg/kg/day, 30 min test): did not alter total locomotor activity | total locomotor activity, without logarithmic transformation ([3]; chronic fluoxetine, all doses): remain unaffected by all doses of drug | any measures in the OF ([3]; subchronic (one day) fluoxetine, untransformed or log transformed): no differences in any measures in the OF | Serum fluoxetine levels ([4]; chronic fluoxetine 10 mg/kg/day (80 mg/L drinking water)): 170.3 ± 57.8 ng/mL | Serum fluoxetine levels ([4]; chronic fluoxetine 18 mg/kg/day (160 mg/L drinking water)): 563.4 ± 118.4 ng/mL | Serum fluoxetine levels ([4]; chronic fluoxetine 25 mg/kg/day (240 mg/L drinking water)): 1779.2 ± 364.9 ng/mL
